What was measured:
[1] = system: surinam grass; test: Test B pre/postemergence surinam grass; format: in vivo, Brachiaria decumbens; details: Postemergence
Outline: (§1)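 Response is a visual 0-to-10 score relative to untreated plants, where 0 means no effect and 10 means complete control, taken twelve to sixteen days after application. Treatments went onto soil at planting and onto foliage of 1- to 4-leaf plants, using a surfactant-containing non-phytotoxic solvent.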

[2] = system: soybean; test: Test B pre/postemergence soybean; format: in vivo, Glycine max
Outline: as §1

[3] = system: crabgrass; test: Test B pre/postemergence crabgrass; format: in vivo, Digitaria sanguinalis
Outline: as §1

[4] = system: wild oat; test: Test B pre/postemergence wild oat; format: in vivo, Avena fatua
Outline: as §1

[5] = system: wheat; test: Test B pre/postemergence wheat; format: in vivo, Triticum aestivum
Outline: as §1

[6] = system: cocklebur; test: Test B pre/postemergence cocklebur; format: in vivo, Xanthium strumarium
Outline: as §1

[7] = system: purple nutsedge; test: Test B pre/postemergence purple nutsedge; format: in vivo, Cyperus rotundus
Outline: as §1

[8] = system: pigweed; test: Test B pre/postemergence pigweed; format: in vivo, Amaranthus retroflexus
Outline: as §1

[9] = system: sugar beet; test: Test B pre/postemergence sugar beet; format: in vivo, Beta vulgaris
Outline: as §1

[10] = system: morningglory; test: Test B pre/postemergence morningglory; format: in vivo, Ipomoea hederacea
Outline: as §1

[11] = system: corn; test: Test B pre/postemergence corn; format: in vivo, Zea mays
Outline: as §1

[12] = system: velvetleaf; test: Test B pre/postemergence velvetleaf; format: in vivo, Abutilon theophrasti
Outline: as §1

[13] = system: giant foxtail; test: Test B pre/postemergence giant foxtail; format: in vivo, Setaria faberii
Outline: as §1

[14] = system: bedstraw; test: Test B pre/postemergence bedstraw; format: in vivo, Galium aparine
Outline: as §1

[15] = system: blackgrass; test: Test B pre/postemergence blackgrass; format: in vivo, Alopecurus myosuroides
Outline: as §1

[16] = system: rape; test: Test B pre/postemergence rape; format: in vivo, Brassica napus
Outline: as §1

[17] = Postemergence, Rate 62 g/ha, scale 0 to 10, 0 is no effect, 10 is complete control
[18] = Postemergence, Rate 125 g/ha, scale of 0 to 10 where 0 is no effect and 10 is complete control
[19] = Preemergence, Rate 125 g/ha, scale of 0 to 10 where 0 is no effect and 10 is complete control
[20] = Preemergence, Rate 250 g/ha, scale 0 (no effect) to 10 (complete control)
[21] = Rate 62 g/ha, Preemergence, scale 0 to 10
[22] = Rate 250 g/ha, Postemergence, scale 0 to 10, 0 is no effect, 10 is complete control
[23] = Rate 500 g/ha, Postemergence, scale 0 to 10, 0 is no effect, 10 is complete control
[24] = Rate 500 g/ha, Preemergence, scale 0 to 10 (0 no effect, 10 complete control)

CCC(C)n1c(=O)on(C(=O)N(c2ccc(F)cc2)C(C)C)c1=O (stereo not shown) [Compound 751]
7: B. signalgrass plant response rating ([1]; Rate 500 g/ha, scale 0 to 10, 0 is no effect, 10 is complete control) | Soybean plant response rating [2, 20] | Soybean plant response rating [2, 22] | Soybean plant response rating [2, 23] | Plant response rating, Crabgrass [3, 17] | Sugarbeets plant response rating [9, 24] | Velvetleaf plant response rating [12, 21] | Bedstraw plant response rating [14, 23] | Blackgrass plant response rating [15, 23] | Rape plant response rating [16, 20]
5: Wild oats plant response rating [4, 23] | Wheat plant response rating [5, 20] | Wheat plant response rating [5, 22] | Sugarbeets plant response rating [9, 20] | Plant response rating, Morningglory [10, 19] | Morningglory plant response rating [10, 20] | Morningglory plant response rating [10, 24] | Bedstraw plant response rating [14, 18] | Rape plant response rating [16, 22] | Rape plant response rating [16, 23]
0: Plant response rating, Soybean [2, 19] | Soybean plant response rating [2, 21] | Plant response rating, Wild oats [4, 17] | Wild oats plant response rating [4, 18] | Plant response rating, Wheat [5, 17] | Wheat plant response rating [5, 18] | Wheat plant response rating [5, 21] | Plant response rating, Cocklebur [6, 17] | Plant response rating, Cocklebur [6, 19] | Cocklebur plant response rating [6, 20] | Cocklebur plant response rating [6, 21] | Cocklebur plant response rating [6, 24] | Plant response rating, Nutsedge [7, 17] | Nutsedge plant response rating [7, 18] | Plant response rating, Nutsedge [7, 19] | Nutsedge plant response rating [7, 20] | Nutsedge plant response rating [7, 21] | Nutsedge plant response rating [7, 22] | Nutsedge plant response rating [7, 24] | Morningglory plant response rating [10, 21] | Plant response rating, Corn [11, 17] | Corn plant response rating [11, 18] | Corn plant response rating [11, 21] | Corn plant response rating [11, 22] | Plant response rating, Velvetleaf [12, 17] | Plant response rating, Bedstraw [14, 17]
4: Plant response rating, Wheat [5, 19] | Plant response rating, Corn [11, 19] | Rape plant response rating [16, 21]
2: Plant response rating, Soybean [2, 17] | Cocklebur plant response rating [6, 18] | Cocklebur plant response rating [6, 22] | Cocklebur plant response rating [6, 23] | Plant response rating, Sugarbeets [9, 19] | Sugarbeets plant response rating [9, 21] | Corn plant response rating [11, 23] | Velvetleaf plant response rating [12, 18] | Velvetleaf plant response rating [12, 22] | Plant response rating, Bedstraw [14, 19] | Plant response rating, Rape [16, 17]
9: Soybean plant response rating [2, 24] | Crabgrass plant response rating [3, 22] | Crabgrass plant response rating [3, 23] | Redroot pigweed plant response rating [8, 22] | Redroot pigweed plant response rating [8, 23] | Morningglory plant response rating [10, 23] | Corn plant response rating [11, 24] | Giant foxtail plant response rating [13, 18] | Giant foxtail plant response rating [13, 22] | Giant foxtail plant response rating [13, 23] | Bedstraw plant response rating [14, 20] | Blackgrass plant response rating [15, 21] | Rape plant response rating [16, 24]
10: Plant response rating, Crabgrass [3, 19] | Crabgrass plant response rating [3, 20] | Crabgrass plant response rating [3, 21] | Crabgrass plant response rating [3, 24] | Wild oats plant response rating [4, 20] | Wild oats plant response rating [4, 24] | Wheat plant response rating [5, 24] | Nutsedge plant response rating [7, 23] | Plant response rating, Redroot pigweed [8, 19] | Redroot pigweed plant response rating [8, 20] | Redroot pigweed plant response rating [8, 21] | Redroot pigweed plant response rating [8, 24] | Plant response rating, Giant foxtail [13, 19] | Giant foxtail plant response rating [13, 20] | Giant foxtail plant response rating [13, 21] | Giant foxtail plant response rating [13, 24] | Bedstraw plant response rating [14, 24] | Plant response rating, Blackgrass [15, 19] | Blackgrass plant response rating [15, 20] | Blackgrass plant response rating [15, 24]
3: Plant response rating, B. signalgrass ([1]; Rate 62 g/ha, scale 0 to 10, 0 is no effect, 10 is complete control) | B. signalgrass plant response rating ([1]; Rate 125 g/ha, scale of 0 to 10 where 0 is no effect and 10 is complete control) | Soybean plant response rating [2, 18] | Wild oats plant response rating [4, 21] | Wild oats plant response rating [4, 22] | Wheat plant response rating [5, 23] | Plant response rating, Sugarbeets [9, 17] | Sugarbeets plant response rating [9, 18] | Sugarbeets plant response rating [9, 22] | Sugarbeets plant response rating [9, 23] | Velvetleaf plant response rating [12, 23] | Rape plant response rating [16, 18]
6: B. signalgrass plant response rating ([1]; Rate 250 g/ha, scale 0 to 10, 0 is no effect, 10 is complete control) | Redroot pigweed plant response rating [8, 18] | Plant response rating, Blackgrass [15, 17] | Blackgrass plant response rating [15, 18] | Blackgrass plant response rating [15, 22] | Plant response rating, Rape [16, 19]
8: Crabgrass plant response rating [3, 18] | Plant response rating, Wild oats [4, 19] | Plant response rating, Morningglory [10, 17] | Morningglory plant response rating [10, 18] | Morningglory plant response rating [10, 22] | Corn plant response rating [11, 20] | Plant response rating, Velvetleaf [12, 19] | Velvetleaf plant response rating [12, 20] | Velvetleaf plant response rating [12, 24] | Plant response rating, Giant foxtail [13, 17]
